From PubChem BioAssay AID463199 (Broad Institute, 2010) come the findings set out here.

Structures are written as SMILES. The source made the active and inactive calls.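 The calls were made as follows: active = AC50, the dose giving half-maximal effect, exceeds a fixed cutoff for a compound that rescues yeast growth under heat; inactive = the rest, inconclusive results apart.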 A value given as a limit tells only on which side of the number the result lay.

For orientation: AC50 means the midpoint of the concentration-response curve, whichever way the signal moves.

The assay deals with S. cerevisiae Burl-1 ts mutant growth, BacTiter-Glo, 38.5C 24 h. Briefly: restored growth of temperature-sensitive Burl-1 yeast – whole organism, S. cerevisiae, Burl-1 ts mutant, luminescence, counter-screen for SUMOylation pathway inhibitor project, dose response (AID 463199). A general note: A counterscreen serves to expose hits that act by an unwanted route or on another target.
Consider `COc1cccc(C2C(C(C)=O)=C(O)C(=O)N2CCc2c[nH]c3ccccc23)c1` (centres undefined), for which the AC50 was > 42 µM (inactive).
`COc1ccc(C2=Nn3c(nnc3-c3ccco3)SC2)cc1`: the AC50 is > 42 µM (inactive).
On to `CCCSc1nc(=O)n2cccc(C)c2n1`, for which the AC50 was > 42 µM (inactive).
On to `CCOC(=O)C1CCN(Cc2ccc(OCc3ccccc3)cc2)CC1`, for which the AC50 is > 42 µM (inactive).
On to `O=C(NCCCn1ccnc1)c1ccc(Cl)cc1`, for which the AC50 is > 42 µM (inactive).
As to `Cc1ccc(S(=O)(=O)N2CCCC2C(=O)NCCc2ccccc2)cc1` (centres undefined), the AC50 was > 42 µM (inactive).
For `Cc1ccc2nc(NC(=O)CNS(=O)(=O)c3ccc(Br)s3)sc2c1`, the AC50 is > 42 µM (inactive).
The same measure for `Cc1nc(CCNC(=O)c2ccccc2)cs1`: > 42 µM (inactive); for `CCOc1ccc(N(C(C)C(=O)NC(C)CC)S(C)(=O)=O)cc1` (centres undefined): > 42 µM (inactive); for `C/C=C\C=C/C(=O)Nc1cccc(C2=NOC3(C2)C[C@@H](C(N)=O)N(C(=O)c2ccccc2)C3)c1` (some centres undefined): > 42 µM (inactive).
In the case of `CN(C(=O)C1CCCO1)c1nnc(-c2cnccn2)s1` (centres undefined), the AC50 was > 42 µM (inactive).
In the case of `O=C(COc1ccccc1)Nc1cccc(-c2nnc(-c3ccccc3)o2)c1`, the AC50 is > 42 µM (inactive).
The same measure for `CC1=CC(=O)C(C(C)C)=C/C1=N/OS(=O)(=O)c1ccccc1`: > 50 µM (inactive); for `CCCOc1ccc(N2C(=O)CC(N3CCC(C(=O)OCC)CC3)C2=O)cc1` (centres undefined): > 42 µM (inactive).
Consider `O=C(CSc1nc2ccc(Nc3nc(N4CCOCC4)nc(N4CCOCC4)n3)cc2s1)N1CCOCC1`, for which the AC50 was > 42 µM (inactive).
Then `Cc1cccc(NC(=O)CSCC(=O)N2CCCc3ccccc32)c1`, with > 42 µM (inactive).
Then `CC(c1ccccn1)N(CCN(C)C)C(=S)Nc1cccc(F)c1` (centres undefined), with > 42 µM (inactive); and `CCNc1ccc(S(=O)(=O)N(C)C)cc1NCC(=O)Nc1ccccc1Br`, with > 42 µM (inactive); and `Cc1cc(C)cc(NC(=O)CS(=O)(=O)c2ccccc2)c1`, with > 42 µM (inactive).
The same measure for `Cc1c(C(=O)N2CCCC2)c(S(=O)(=O)Nc2cccc(Br)c2)c(C)n1C`: > 42 µM (inactive).
For `Cc1ccc(C)c(NC(=O)COC(=O)c2ccc3c(c2)OCO3)c1`, the AC50 was > 42 µM (inactive).
Then `O=C(Nc1nnc(COc2ccc(F)cc2)s1)c1cccs1`, with > 42 µM (inactive); and `COc1cc(/C=N/NC(=S)NCc2ccco2)cc(OC)c1OC`, with > 42 µM (inactive).
Then `COc1ccc(/C=N/NC(=O)c2c(C)nc3ccccn23)cc1[N+](=O)[O-]`, with > 42 µM (inactive).
For `O=C(CC(c1ccccc1)c1ccccc1)NCCOCc1ccccc1`, the AC50 is > 42 µM (inactive).
Take `CN(C)C1(c2nnnn2-c2ccc(Cl)cc2)CCCCC1`: the AC50 is > 42 µM (inactive).
For the compound `O=C(c1ccc(Br)cc1)C(CN1CCOCC1)c1ccccc1` (centres undefined), the AC50 was 1.86 µM.
`O=C(N/N=C/c1ccc(Cl)s1)c1ccccc1[N+](=O)[O-]`: the AC50 is > 42 µM (inactive).
Then `O=C1CCN(Cc2ccccc2)CCN1CCOc1ccccc1`, with > 42 µM (inactive); and `COc1cccc(NC(=O)CNC(=O)c2ccc(C)cc2)c1`, with > 42 µM (inactive).
Turning to `COc1ccc(C)cc1NC(=O)C12CCC(C)(C(=O)O1)C2(C)C` (centres undefined), the AC50 was > 42 µM (inactive).
`C/C(=N\NC(=O)c1cccc(N/N=C(\C)c2ccc([N+](=O)[O-])cc2)c1)c1ccc([N+](=O)[O-])cc1`: the AC50 is > 42 µM (inactive).
With `COC(=O)[C@@H](NC(=O)Nc1ccc(S(N)(=O)=O)cc1)C(C)C`, the AC50 was > 42 µM (inactive).
For the compound `COC(=O)C(CC(C)C)NC(=O)CNC(=O)c1ccccc1C` (centres undefined), the AC50 was > 42 µM (inactive).
With `O=C1NC2(CCCCO2)CO1` (centres undefined), the AC50 was > 42 µM (inactive).
On to `CN(C)CCOC(c1ccc(Cl)cc1)c1ccccn1` (centres undefined), for which the AC50 was > 42 µM (inactive).
The same measure for `COc1ccc(NS(=O)(=O)c2cccc(C(=O)NCCCn3ccnc3)c2)cc1`: > 42 µM (inactive); for `CSc1nnc2c3cc(C)ccc3n(Cc3ccccc3)c2n1`: > 42 µM (inactive); for `COc1ccc2nc(SCC(=O)N(C)CC(=O)Nc3ccc(F)cc3)[nH]c2c1`: > 42 µM (inactive).
With `CCOC(=O)NNC(=O)CCn1c2c(c3ccccc31)CCCC2`, the AC50 was > 42 µM (inactive).
Regarding `Cc1ccc(C(=O)N/C(=C\c2cccs2)C(=O)NCCc2c[nH]c3ccccc23)cc1`, the AC50 is > 42 µM (inactive).
On to `Cc1ccc(NS(=O)(=O)c2csc(C(N)=O)c2)cc1C`, for which the AC50 is > 42 µM (inactive).
With `Cc1ccc(N(C(=O)CCl)C(C(=O)NC2CCCCC2)c2cccnc2)cc1C` (centres undefined), the AC50 is > 42 µM (inactive).
In the case of `O=C(/C=C/N1CCOCC1)c1coc2ccccc12`, the AC50 is > 42 µM (inactive).
Turning to `CCCCc1nnc(NC(=O)CSc2nc(O)c(-c3ccccc3)c(=O)[nH]2)s1`, the AC50 is > 42 µM (inactive).
Then `O=c1c2ccccc2nc(SCc2nnc(-c3ccccc3)o2)n1-c1ccc(F)cc1F`, with > 42 µM (inactive); and `Cc1nc(N)c(Cc2ccccc2F)c(N)n1`, with > 42 µM (inactive); and `NC(=O)NC(=O)COC(=O)/C=C/c1cccs1`, with > 42 µM (inactive).
As to `O=C(COc1ncnc2ccccc12)Nc1ccc(Cl)c(S(=O)(=O)N2CCOCC2)c1`, the AC50 was > 42 µM (inactive).
The same measure for `Cc1ccc(S(=O)(=O)N(C)CC(=O)O/N=C(\N)c2ccccn2)cc1`: 40.6 µM; for `O=C(CSCc1ccc(Cl)cc1)N1CCCCC1`: > 42 µM (inactive); for `C/C(=C\C(=O)N1CCc2ccccc21)C(=O)O`: > 42 µM (inactive).
With `COc1cc(/C=N/NC(=O)c2cccnc2)ccc1OCC(=O)N1CCOCC1`, the AC50 was > 42 µM (inactive).
The same measure for `Cc1cccc(N=Nc2ccc(N(C)C)cc2)c1`: > 42 µM (inactive); for `CC(C)C[C@@H](CO)N1CCN(Cc2cccnc2)CCC1=O`: > 42 µM (inactive); for `CC(Oc1ccccc1)C(=O)Nc1ccccc1O` (centres undefined): > 42 µM (inactive).
Consider `CC1(OC(=O)C2CCCC2)C(=O)C=C2C=C(c3ccsc3)OC=C2C1=O` (centres undefined), for which the AC50 is > 42 µM (inactive).
As to `O=C1CN(C(=O)c2c(F)cccc2F)C(c2ccc(F)cc2)c2cc(F)ccc2N1` (centres undefined), the AC50 was > 42 µM (inactive).
On to `CC(C)(C)C(=O)C(Cl)C(=O)Nc1ccccc1` (centres undefined), for which the AC50 is > 42 µM (inactive).
For `CCOC(=O)c1sc2ncn(C(CC)C(=O)OCC)c(=O)c2c1C` (centres undefined), the AC50 is > 42 µM (inactive).
The same measure for `CCOC(=O)c1ccc(NC(=O)c2c(NC(=O)CCC(=O)O)sc3c2CCCCC3)cc1`: > 42 µM (inactive); for `CC1=C(C)CS(=O)N(S(=O)(=O)c2ccc(Cl)cc2)C1` (centres undefined): 12.1 µM.
As to `COc1cc(SC)ccc1C(=O)Nc1cc(C)c(OCC(=O)N2CCOCC2)c(C)c1`, the AC50 is > 42 µM (inactive).
With `Cc1c(C(=O)OCC(=O)Nc2ccc(S(N)(=O)=O)cc2)oc2c1ccc1ccccc12`, the AC50 is > 42 µM (inactive).
